Laboratory results as given in patent EP4603105A1, “PHARMACEUTICAL COMPOSITION CONTAINING CYCLIC COMPOUND HAVING SELECTIVE KRAS INHIBITORY EFFECT AGAINST HRAS AND NRAS” (CHUGAI SEIYAKU KABUSHIKI KAISHA, priority 2022, dated 2024).
Where two headings read alike, the source gives them in different places. *1 amine or outer side, *2 acyl side, *3 side chain or, on linkers, in order; H or OH if unused. Where a SMILES comes first, the peptide text is derived from it. Bridges are numbered along the chain shown (N, C = ends). [ ]: non-standard residue; d: D form. The star is where a group is joined. hPhe(3-Cl-4-CF3) = N[C@@H](CCc1ccc(C(F)(F)F)c(Cl)c1)C(=O)O; X43 = COCCCN([C@@H](Cc1ccc(C(F)(F)F)cc1)C(=O)[*:2])[*:1]; NPrPhe(4-CF3) = CCCN[C@@H](Cc1ccc(C(F)(F)F)cc1)C(=O)O; NEtPhe(4-Me) = CCN[C@@H](Cc1ccc(C)cc1)C(=O)O; NMePhe(4-Me) = CN[C@@H](Cc1ccc(C)cc1)C(=O)O; NMeGly(cPent) = CN[C@H](C(=O)O)C1CCCC1; Hyp = O=C(O)[C@@H]1C[C@@H](O)CN1; NMeI = CC[C@H](C)[C@H](NC)C(=O)O; NMeD = CN[C@@H](CC(=O)O)C(=O)O; NMeL = CN[C@@H](CC(C)C)C(=O)O; Morpholide = C1CN(*)CCO1; NMeA = CN[C@@H](C)C(=O)O; Ac5c = NC1(C(=O)O)CCCC1; Aze = O=C(O)[C@@H]1CCN1; Ac4c = NC1(C(=O)O)CCC1; NEtG = CCNCC(=O)O; Sar = CNCC(=O)O

Tests used:
[1] = target: GDP-bound NRAS wild-type protein (Homo sapiens, UniProt P01111); test: Binding to NRAS by surface plasmon resonance (SPR), KD and KD ratio to KRAS
Sequence of GDP-bound NRAS wild-type protein (P01111 whole entry): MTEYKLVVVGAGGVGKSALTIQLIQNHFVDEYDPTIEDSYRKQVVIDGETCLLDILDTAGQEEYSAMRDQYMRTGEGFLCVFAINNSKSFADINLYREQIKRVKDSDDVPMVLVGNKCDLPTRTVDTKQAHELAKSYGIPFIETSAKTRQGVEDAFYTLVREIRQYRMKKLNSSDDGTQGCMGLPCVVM
In short: (§1)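 SPR, 30°C: Avi-biotin RAS·GDP captured via Biotin CAPture (~100–300 RU); running buffer HBS pH 7.4, 1 mM DTT, 10 mM MgCl2, 0.01% Tween 20, 10 µM GDP, 4% DMSO. Single-cycle kinetics, 100 µL/min, 75 s injections; 1:1 model → KD.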

HRAS wild-type protein = HRAS wild-type protein (Homo sapiens, UniProt P01112); test: Binding to HRAS by surface plasmon resonance (SPR), KD and KD ratio to KRAS
Sequence of HRAS wild-type protein (P01112 whole entry): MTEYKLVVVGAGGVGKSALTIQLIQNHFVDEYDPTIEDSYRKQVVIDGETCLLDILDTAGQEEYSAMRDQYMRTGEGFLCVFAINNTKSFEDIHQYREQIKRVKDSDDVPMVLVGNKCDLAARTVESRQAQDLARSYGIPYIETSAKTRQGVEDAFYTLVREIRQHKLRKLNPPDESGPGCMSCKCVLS
In short: as §1

[2] = test system: human lung cancer strain NCI-H441; format: cell-based
In short: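 Proliferation was scored by […] measured after the reagent was added to cultures kept at 37°C in 5% carbon dioxide.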

[3] = ratio of KD value for GDP-bound NRAS wild-type protein to KD value for KRAS (SPR)
[4] = ratio of KD value for HRAS wild-type protein to KD value for KRAS (SPR)
[5] = ratio of the KD value with respect to GDP-bound NRAS wild-type protein to the KD value with respect to KRAS
[6] = ratio of the KD value with respect to HRAS wild-type protein to the KD value with respect to KRAS
[7] = ratio of KD for GDP-bound NRAS wild-type protein to KD for KRAS
[8] = ratio of KD for HRAS wild-type protein to KD for KRAS

SMILES	IC50 [2] [µM]	NRAS /KRAS [1, 3]	HRAS /KRAS (HRAS wild-type protein; [4])	NRAS /KRAS [1, 5]	HRAS /KRAS (HRAS wild-type protein; [6])	NRAS /KRAS [1, 7]	HRAS /KRAS (HRAS wild-type protein; [8])	IC50 ([2]; NCI-H441 cells, 4 days, CellTiter-Glo, read-out: NCl-H441 IC50) [µM]
CCCN1C(=O)[C@@H]2CCN2C(=O)CN(C)C(=O)[C@H]([C@@H](C)CC)NC(=O)[C@H](CC(C)C)N(C)C(=O)C[C@@H](C(=O)N(C)C)N(C)C(=O)[C@H](C2CCCC2)N(C)C(=O)C2(CCC2)NC(=O)[C@@H]2C[C@@H](OCC)CN2C(=O)[C@H](CCc2ccc(C(F)(F)F)c(Cl)c2)NC(=O)CN(C)C(=O)[C@@H]1Cc1ccc(C(F)(F)F)cc1 [PP0445] ([NMeL]I[Sar][Aze][NPrPhe(4-CF3)][Sar][hPhe(3-Cl-4-CF3)][Hyp](Et)[Ac4c][NMeGly(cPent)][NMeD]-NMe2; lactam N-11)	0.0017			C (A compound having a KD ratio of 0.1 or more and less than 3 is denoted as C)	C (A compound having a KD ratio of 0.1 or more and less than 3 is denoted as C)			
CC[C@H](C)[C@@H]1NC(=O)[C@H](CC(C)C)N(C)C(=O)C[C@@H](C(=O)N2CCOCC2)N(C)C(=O)[C@H](C2CCCC2)N(C)C(=O)C2(CCCC2)NC(=O)[C@@H]2CCCN2C(=O)[C@H](CCc2ccc(C(F)(F)F)c(Cl)c2)NC(=O)CN(CC)C(=O)[C@H](Cc2ccc(C)cc2)N(C)C(=O)CN(C)C(=O)CN(C)C1=O [PP0025] ([NMeL]I[Sar][Sar][NMePhe(4-Me)][NEtG][hPhe(3-Cl-4-CF3)]P[Ac5c][NMeGly(cPent)][NMeD]-Morpholide; lactam N-11)	0.0275					C (A compound having a KD ratio of 0.1 or more and less than 3 is denoted as C)	C (A compound having a KD ratio of 0.1 or more and less than 3 is denoted as C)	
CCO[C@@H]1C[C@H]2C(=O)NC3(CCCC3)C(=O)N(C)[C@@H](C3CCCC3)C(=O)N(C)[C@H](C(=O)N3CCOCC3)CC(=O)N(C)[C@@H](CC(C)C)C(=O)N[C@@H]([C@@H](C)CC)C(=O)N(C)CC(=O)N(C)[C@H]3CCCCN(C3=O)[C@@H](Cc3ccc(C(F)(F)F)cc3)C(=O)N(C)CC(=O)N[C@@H](CCc3cc(F)c(C(F)(F)F)c(F)c3)C(=O)N2C1 [PP0554]	0.0016			B (a compound having 3 or more and less than 10 is denoted as B)	B (a compound having 3 or more and less than 10 is denoted as B)			
CC[C@H](C)[C@@H]1NC(=O)[C@H](CC(C)C)N(C)C(=O)C[C@@H](C(=O)N2CCOCC2)N(C)C(=O)[C@H]([C@@H](C)CC)N(C)C(=O)C2(CCCC2)NC(=O)[C@@H]2CCCN2C(=O)[C@H](CCc2ccc(C(F)(F)F)c(Cl)c2)NC(=O)CN(C)C(=O)[C@H](Cc2ccc(C)cc2)N(CC)C(=O)CN(C)C(=O)CN(C)C1=O [PP0043] ([NMeL]I[Sar][Sar][NEtPhe(4-Me)][Sar][hPhe(3-Cl-4-CF3)]P[Ac5c][NMeI][NMeD]-Morpholide; lactam N-11)	0.0204					C (A compound having a KD ratio of 0.1 or more and less than 3 is denoted as C)	C (A compound having a KD ratio of 0.1 or more and less than 3 is denoted as C)	
CCCN1C(=O)CN(C)C(=O)CNC(=O)[C@H]([C@@H](C)CC)NC(=O)[C@H](CC(C)C)N(C)C(=O)C[C@@H](C(=O)N(C)C)NC(=O)[C@H](C2CCCC2)N(C)C(=O)C2(CCC2)NC(=O)[C@@H]2CCCN2C(=O)[C@H](CCc2ccc(C(F)(F)F)c(Cl)c2)NC(=O)CN(C)C(=O)[C@@H]1Cc1ccc(C(F)(F)F)cc1 [PP0362] ([NMeL]IG[Sar][NPrPhe(4-CF3)][Sar][hPhe(3-Cl-4-CF3)]P[Ac4c][NMeGly(cPent)]D-NMe2; lactam N-11)	0.149					B (a compound having 3 or more and less than 10 is denoted as B)	B (a compound having 3 or more and less than 10 is denoted as B)	
CC[C@H](C)[C@@H]1NC(=O)[C@H](CC(C)C)N(C)C(=O)C[C@@H](C(=O)N2CCOCC2)N(C)C(=O)[C@H](C2CCCC2)N(C)C(=O)C2(CCCC2)NC(=O)[C@@H]2CCCN2C(=O)[C@H](CCc2ccc(C(F)(F)F)c(Cl)c2)NC(=O)CN(C)C(=O)[C@H](Cc2ccc(C(F)(F)F)cc2)N(CCCOC)C(=O)[C@@H]2CCN2C(=O)[C@H](C)N(C)C1=O [PP0119] ([NMeL]I[NMeA][Aze][X43][Sar][hPhe(3-Cl-4-CF3)]P[Ac5c][NMeGly(cPent)][NMeD]-Morpholide; lactam N-11)	0.0016					C (A compound having a KD ratio of 0.1 or more and less than 3 is denoted as C)	C (A compound having a KD ratio of 0.1 or more and less than 3 is denoted as C)	
CCC[C@H]1C(=O)N[C@@H]([C@@H](C)CC)C(=O)N(C)CC(=O)N(C)[C@H]2C/C=C\CCN(C2=O)[C@@H](Cc2ccc(C(F)(F)F)cc2)C(=O)N(C)CC(=O)N[C@@H](CCc2cc(C)c(C3CC3)c(C)c2)C(=O)N2C[C@H](OCC)C[C@H]2C(=O)NC2(CC(C)(C)C2)C(=O)N(C)[C@@H](C2CCCC2)C(=O)N(C)[C@H](C(=O)N(C)C)CC(=O)N1C [PP2863]						A (a compound having 10 or more and less than 20 is denoted as A)	A (a compound having 10 or more and less than 20 is denoted as A)	0.128

More lines, main results first:

IC50 [2] [µM]	SMILES	NRAS /KRAS [1, 3]	HRAS /KRAS (HRAS wild-type protein; [4])	NRAS /KRAS [1, 5]	HRAS /KRAS (HRAS wild-type protein; [6])	NRAS /KRAS [1, 7]	HRAS /KRAS (HRAS wild-type protein; [8])	IC50 ([2]; NCI-H441 cells, 4 days, CellTiter-Glo, read-out: NCl-H441 IC50) [µM]
0.0052	CCO[C@@H]1C[C@H]2C(=O)NC3(CC(C)(C)C3)C(=O)N(C)[C@@H](C3CCCC3)C(=O)N(C)[C@H](C(=O)N(C)C)CC(=O)N(C)[C@@H](CC(C)C)C(=O)N[C@@H]([C@@H](C)CC)C(=O)N(C)CC(=O)N(C)[C@H]3C/C=C\CCN(C3=O)[C@@H](Cc3ccc(C(F)(F)F)cc3)C(=O)N(C)CC(=O)N[C@@H](CCc3cc(F)c(Cl)c(F)c3)C(=O)N2C1 [PP1761]	A (a compound having 10 or more and less than 20 is denoted as A)	A (a compound having 10 or more and less than 20 is denoted as A)					
0.0021	CCO[C@@H]1C[C@H]2C(=O)NC3(CCC3)C(=O)N(C)[C@@H](C3CCCC3)C(=O)N(C)[C@H](C(=O)N(C)CC)CC(=O)N(C)[C@H]3CCC/C=C/c4ccc(cc4)C[C@@H](C(=O)N(C)CC(=O)N[C@@H](CCc4ccc(C(F)(F)F)c(OC)c4)C(=O)N2C1)N1CC/C=C\C[C@@H](C1=O)N(C)C(=O)CN(C)C(=O)[C@H]([C@@H](C)CC)NC3=O [PP1834]	A (a compound having 10 or more and less than 20 is denoted as A)	B (a compound having 3 or more and less than 10 is denoted as B)					
0.0508	CC[C@H](C)[C@@H]1NC(=O)[C@H](C2CCC2)N(C)C(=O)C[C@@H](C(=O)N(C)CC)N(C)C(=O)[C@H](C2CCCC2)N(C)C(=O)C2(CC(C)(C)C2)NC(=O)[C@@H]2C[C@H](C)CN2C(=O)[C@H](CCc2cc(F)c(C(F)(F)F)c(F)c2)NC(=O)CN(C)C(=O)[C@H](Cc2ccc(C(F)(F)F)cc2)N2CC/C=C\C[C@@H](C2=O)N(C)C(=O)CN(C)C1=O [PP1984]			A (a compound having 10 or more and less than 20 is denoted as A)	A (a compound having 10 or more and less than 20 is denoted as A)			
0.0156	C#CC[C@H]1C(=O)N[C@@H]([C@@H](C)CC)C(=O)N(C)CC(=O)N(C)[C@H]2C/C=C\CCN(C2=O)[C@@H](Cc2ccc(C(F)(F)F)cc2)C(=O)N(C)CC(=O)N[C@@H](CCc2cc(F)c(C(F)(F)F)c(F)c2)C(=O)N2C[C@@H](C)C[C@H]2C(=O)NC2(CC(C)(C)C2)C(=O)N(C)[C@@H](C2CCCC2)C(=O)N(C)[C@H](C(=O)N(C)CCC)CC(=O)N1C [PP2076]			A (a compound having 10 or more and less than 20 is denoted as A)	A (a compound having 10 or more and less than 20 is denoted as A)			
